Source: US12479852B2, “Compounds, compositions, and methods for protein degradation” (DANA-FARBER CANCER INSTITUTE, INC., priority 2019, dated 2025)

Tested on: synovial sarcoma cell lines
Experiment: testing against a panel of synovial sarcoma cell lines (antiproliferation)
Type: cell-based
Settings: FIG. 1

SMILES: O=C(CCOCCOCCOCCNc1cccc2c1C(=O)N(C1CCC(=O)NC1=O)C2=O)NCCc1ccc(N2C[C@@H]3C[C@H]2CN3/C=C/C(=O)c2ccccc2O)cc1 (stereo partly drawn) [Compound E1, 3-(2-(2-(2-((2-(2,6-dioxopiperidin-3-yl)-1,3-dioxoisoindolin-4-yl)amino)ethoxy)ethoxy)ethoxy)-N-(4-((1S,4S)-5-((E)-3-(2-hydroxyphenyl)-3-oxoprop-1-en-1-yl)-2,5-diazabicyclo[2.2.1]heptan-2-yl)phenethyl)propanamide]
- antiproliferation effect against synovial sarcoma lines: antiproliferation effect
